Data set [1] relates to striatum (a brain structure). The data set can be described thus: In vivo injection into the striatum, gliosis (nissl stain). To be noted: rats, 1 μl into the striatum. The protocol: Three hundred g rats were anesthesized with equithesin (0.3 ml/100 g body weight). The skull was surgically exposed and small burr holes were stereotaxically drilled at AP=+1.5, ML=+/−3.0 relative to bregma. An injection cannula was placed at a depth of −4.5 in the striatum (a brain structure). Experimental rats received 1 μl of EAK16 or RAD16 injected into the striatum. Control rats received similar injections of ibotenic acid, a well characterized toxin, as a positive contorl for gliosis, the experimental rats also received 35 μl injection of EAK16 or RAD16 into the thigh muscle (n=2 for each group). The rate were allowed to recover, then sacrificed for tissue harvest.

In another data set the test system is PC12 cells. The data set can be described thus: In vitro neurite outgrowth on peptide membranes. Type of data set: cell-based, rat. More on the design: Neurite outgrowth, NGF treated, 14 days: key to the marks not given beside the values. How it is done:
The suitability of these materials for supporting in vitro neurite outgrowth was tested by treating biomaterial-attached PC12 cells with nerve growth factor (NGF). This treatment induces PC12 cells to differentiate into sympathetic neurons which can send out long processes called neurites. There was a marked difference in the neurite promoting properties of the two materials tested (EAK16 and RAD16).
Nerve growth factor differentiated PC12 cells have been used extensively in studies of neurite outgrowth. PC12 cells upregulate the number of calcium-dependent and -independent cell adhesion receptors in response to nerve growth factor. Cell attachment and neurite outgrowth from nerve growth factor differentiated PC12 cells was examined on membranes of RAD16 and EAK16 in order to determine whether membranes containing RGD-like sequences would preferentially support these cell activities. Neurite outgrowth on peptide membranes is of interest for potential applications of nerve repair.
Untreated PC12 cells were introduced to peptide membranes of EAK16 and RAD16 suspended in 85% RMMP1, 10% heat inactivated horse serum, 5 fetal bovine serum. Half of the cells were treated with nerve growth factor (50 ng/ml, NGF) and were supplemented with NGF every 3-4 days for 14 days. […] The neurite outgrowth reached greater than 400 μm in length, approximately 15-20 times the cell body, following the contour of the matrices in a three dimensional network.

The nature of data set [2]: Testing of peptides for macroscopic membrane formation (phase-contrast microscope, Congo Red staining). The format is physicochemical. From the text: The effect of length and sequence on membrane formation was examined using several peptides (Table 1 and Example 3). […] Very long peptides, e.g., of about 200 amino acids, may encounter problems due to insolubility and intramolecular interactions which destabilize membrane formation. […] The optimal lengths for membrane formation will probably vary with the amino acid composition.
The EAK12 and EAK16 tested for membrane formation were acetylated and aminylated at both N- and C-terminal ends. […] The peptides were initially dissolved in water (5 mg/ml) or in 23% acetonitrile (10 mg/ml). A volume of 5-10 microliters of the dissolved peptides were applied to the DMEM medium, PBS or water. The formation of the membrane was first observed under a phase-contrast microscope and then, by the naked eye after staining with Congo Red.

The subject of a further data set is PC12. The data set can be described thus: Cell attachment to biopolymer sheets, normal or Ca++ and Mg++ free medium (Table 6). Type of data set: cell-based, rat. More on the design: key: ++++: strong attachment; +++: moderate attachment; ++: weak attachment; +/−: little or no attachment. The protocol: (§1) Cells were pretreated in serum-free medium containing 30 μg/ml cyclohexamide for 2 hours before introduction to the peptide membranes. The cells used for the calcium and magnesium-free condition were pre-equilibrated in Ca^++ and Mg^++ free medium containing 5 mM EDTA for 15 minutes before introduction to the peptide membranes. Cells were allowed to attach to the peptide membranes for 30 minutes, 1 and 8 hours at 37° C. The attached cells were shaken for […] on a rotary rocker at 60 r.p.m., then scored under phase contrast microscopy.

The next data set has as its system PC12NGF. Described as above. Type of data set: cell-based, rat. Further details: key: ++++: strong attachment; +++: moderate attachment; ++: weak attachment; +/−: little or no attachment. How it is done:
as §1

The format of data set [3] is physicochemical. The protocol:
Once formed, the macroscopic membranes are stable in a variety of aqueous solutions, including water, phosphate-buffered saline (PBS), tissue culture medium, serum, and also in ethanol, and can be transferred to and stored in any of these liquids. […] The membranes can be transferred from one solution to another using a solid support such as a spatula. They can be broken by cutting, tearing or shearing.
The stability of the membranes was also tested under a range of temperature, pH and chemical conditions. For these experiments, membranes were formed by adding 20 μl of a 0.5 mM stock solution of EAK16 to 0.5 ml of PBS, and transferred into water or other solutions at test conditions.
The membranes could be frozen and thawed, although care was required in handling the frozen membranes which were brittle. In boiling water, the membranes tended to be sheared by the mechanical agitation. […] (FIGS. 9A and 9B). […] Such strong thermal stability of the defined β-sheet structure of EAK16 is unusual for a small peptide. For example, these findings contrast with the α-helix-forming sixteen residue (Ala, Glu, Lys)-containing peptides studied previously (Marqusee and Baldwin, 1987).
The EAK16 membranes were also tested in water at pH 1.5, 3, 7 and 11 at room temperature for at least a week and at 95° C. for about 4 hours. The membranes were unaffected at these pH. […] It is possible that the complementary interactions between the Glu and Lys side-chains are strong even when the carboxyl groups of the Glu residues have been protonated at pH 1.5 and 3, due to their ability to form hydrogen bonds even when protonated.
The EAK16 membranes were further tested for resistance to chemical denaturation under the following conditions: 1% and 10% sodium dodecyl sulfate (SDS); 1, 2, 3, 4, 5, 6 and 7 M guanidine-HCl; and 1, 2, 3, 4, 5, 6, 7 and 8 M urea. […] The membranes were also tested at 95° C. for 4 hours in 10% SDS; 7 M guanidine-HCl; and at 8 M urea.

A further data set deals with 3T3. Nature of the data set: Cell attachment to biopolymer sheets, normal or Ca++ and Mg++ free medium (Table 6). Type of data set: cell-based, mouse. Further details: key: ++++: strong attachment; +++: moderate attachment; ++: weak attachment; +/−: little or no attachment. To be noted: 3T3, 30 min, Normal Ca^++ & Mg^++ serum-free + Cyclohex. How it is done: as §1
The next data set has as its system 3T3 fibroblast cells. Nature of the data set: Cell attachment to biopolymer sheets, with serum or serum-free + cyclohexamide (Table 5). Type of data set: cell-based, mouse. Further details: key: ++++: strong attachment; +++: moderate attachment; ++: weak attachment; +/−: little or no attachment. How it is done: 3T3 fibroblast cells were introduced to membranes of RAD16 and EAK16 in normal serum-containing medium or in serum-free medium containing 30 μg/ml cyclohexamide (cells used for this condition were pretreated in this medium for 2 hours before plating). Cells were allowed to attach to the membranes for 30 minutes, 1 and 8 hours at 37° C. The attached cells were shaken for 10 minutes on a rotary rocker at 60 r.p.m., then scored under phase contrast microscopy. The decrease in cells attached to the membrane in the serum-free condition reflects cell loss due to serum deprivation.

Data set [4] deals with NGF differentiated PC12 cells, retonic acid-differentiated human neuroblastoma and mouse cerebellum granule cells. Nature of the data set: Neurite outgrowth on biopolymers, several neuronal cell types. The format is cell-based. From the text:
The invention further relates to the regeneration of nerves with filaments of the membranes of the present invention. Nerve regeneration can be promoted and directed by transplanting filaments of RAD16 along the correct path to their targets. This would be extremely useful for patients with severed peripheral nerves. Such a technology could be refined to help people with spinal cord injuries.

The mark [5] stands for this setting: NGF-treated PC12 cells, 14 days.

Entries after “also recorded” stand apart in the source; their conditions may differ.

With `N[C@H](C(=O)O)c1cc(=O)[nH]o1` [ibotenic acid, reference compound], the “gliosis / gliotic scarring after brain injection” value in [1] is recorded as “robust gliotic scarring around the injection site”.
Turning to H-AAAADADARARADAD-OH [RAD16], in the data set on PC12 cells (NGF-treated PC12 cells on membranes), the “neurite outgrowth of NGF-treated PC12 cells, in words” value is “robust neurite processes; also recorded: Robust neurite outgrowth”. In the data set with PC12 cells (setting [5]), the neurite outgrowth length result is reported as “greater than 400 μm”. In addition, the “neurite outgrowth length relative to the cell body” value in the data set on PC12 cells (setting [5]) was 15-20 times the cell body. Besides, in the data set with PC12 cells (PC12 cells without NGF, 14 days), the “Neurite outgrowth, untreated, 14 days” value is “− (no neurite outgrowth)”. In the data set on PC12 cells (PC12 cells, NGF 50 ng/ml, 14 days), the “Neurite outgrowth, NGF treated, 14 days” value was “++++”. For the same molecule, the “formation of macroscopic membranes” value in [2] (identical conditions, in words) is “found to form macroscopic membranes”. In data set [2] (water), the “membranous structure in Water” value is given as “−”. The cell attachment entry with PC12 (PC12, 30 min, Ca^++ & Mg^++ free, EDTA serum-free + Cyclohex) is given as “++++”; in the data set on PC12 (PC12, 30 min, Normal Ca^++ & Mg^++ serum-free + Cyclohex), “++++”; with PC12 (PC12, 60 min, Ca^++ & Mg^++ free, EDTA serum-free + Cyclohex), “++++”; in the data set on PC12 (PC12, 60 min, Normal Ca^++ & Mg^++ serum-free + Cyclohex), “++++”; in the data set on PC12NGF (30 min, Ca^++ & Mg^++ free, EDTA serum-free + Cyclohex) it was “++++”; with PC12NGF (30 min, Normal Ca^++ & Mg^++ serum-free + Cyclohex), “++++”. The cell attachment entry is “++++” in the data set on PC12NGF (60 min, Ca^++ & Mg^++ free, EDTA serum-free + Cyclohex); “++++” in the data set on PC12NGF (60 min, Normal Ca^++ & Mg^++ serum-free + Cyclohex); “++++” with 3T3; “++++” in the data set on 3T3 fibroblast cells (3T3, 30 min, medium with serum, no cyclohexamide); “++++” with 3T3 fibroblast cells (3T3, 30 min, serum-free medium, + cyclohexamide); “++++” in the data set on 3T3 fibroblast cells (3T3, 60 min, medium with serum, no cyclohexamide). Besides, the cell attachment entry with 3T3 fibroblast cells (3T3, 60 min, serum-free medium, + cyclohexamide) was “++++”; in the data set with 3T3 fibroblast cells (3T3, 8 hrs, medium with serum, no cyclohexamide), “++++”; in the data set on 3T3 fibroblast cells (3T3, 8 hrs, serum-free medium, + cyclohexamide), “++”. In addition, in data set [3], the “stability of membranes in water or PBS” value is given as “stable in water or PBS for at least a week”. In addition, the “neurite outgrowth on biopolymers” value in data set [4] is on record as “occurs on RAD16-based biopolymers”.
